Values joined by “and” are separate entries in the source; they are usually repeats but may differ in a detail not shown here. Equal values may be shown once.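 Five compound concentrations were applied to cells in 96-well plates for 48 hours; endpoints were derived by simple linear interpolation of the resulting dose-response curve. GI50 is the concentration that inhibits growth by half. TGI marks complete inhibition of growth.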
What was measured:
Experiment in all cases: inhibition of tumour cell growth, NCI panel, 48 h
[1] = test system: SF-539 CNS
[2] = test system: SN12C renal
[3] = test system: ACHN renal
[4] = test system: NCI-H460 lung
[5] = test system: LXFL 529 NSCLC
[6] = test system: A549 NSCLC
[7] = test system: MDA-MB-435
[8] = test system: DU-145 prostate
[9] = test system: T-47D breast

SMILES	TGI [1]	TGI [2]	TGI [3]	TGI [4]	TGI [5] [µM]	TGI [6]	GI50 [1]	GI50 [2]	GI50 [3]	GI50 [4]	GI50 [7]	TGI [7]	GI50 [8]	TGI [8]	GI50 [6]	GI50 [9]	TGI [9]
N#CC1CCCCCCCCCCC(=O)N(CCCl)C1=O (centres undefined)	> 100 µM	> 100 µM	> 100 µM	> 100 µM	> 100	> 100 µM	–	–	–	–	–	–	–	–	–	–	–
COc1ccccc1NC(=O)CC(=O)N/N=C/c1ccc(N(CCC#N)S(=O)(=O)c2ccccc2)cc1	–	–	> 100 µM	> 100 µM	> 100	> 100 µM	–	–	–	–	–	–	–	–	–	–	–
N#Cc1cccc(/C=N/N=C(\N)NO)c1	> 100 µM	> 100 µM	> 100 µM	> 100 µM	> 100	> 100 µM	–	–	–	–	–	–	–	–	–	–	–
O=Cc1c(O)c(C(=O)Nc2ccc3[nH]c(=O)[nH]c3c2)cc2ccccc12	> 100 µM	> 100 µM	> 100 µM	> 100 µM	> 100	> 100 µM	–	–	–	–	–	–	–	–	–	–	–
CC(=O)OCC1OC(n2c(-c3ccc(C)cc3)cc(-c3ccccc3)c(C#N)c2=O)C(OC(C)=O)C(OC(C)=O)C1OC(C)=O (centres undefined)	> 100 µM	> 100 µM	> 100 µM	> 100 µM	> 100	> 100 µM	–	–	–	–	–	–	–	–	–	–	–
Cc1cc2c(C)nn(Cc3ccc(Cl)cc3)c2c(C#N)c1C	> 100 µM	> 100 µM	> 100 µM	–	> 100	> 100 µM	–	–	–	–	–	–	–	–	–	–	–
COc1ccc(-c2ccc(-c3ccc(C(=N)N)o3)o2)cc1	3.63 µM	4.59 µM	4.2 µM	3.28 µM	–	4.79 µM	1.88 µM	2.02 µM	1.8 µM	1.17 µM	0.293 µM	1.12 µM	1.91 µM	4.86 µM	1.49 µM	1.53 µM	4.07 µM
O=C1C(=O)c2cccnc2-c2ncccc21	0.502 µM	0.848 µM	0.318 µM	0.774 µM	–	2.8 µM	0.184 µM	0.25 µM	0.0545 µM	0.0678 µM	0.263 µM	1.02 µM	0.239 µM	1.28 µM	1.04 µM	0.205 µM	0.461 µM
O=C1c2ccccc2-c2c1c1ccccc1c(=O)n2CCCn1ccnc1	8.06 µM	4.31 µM	3.43 µM	10.4 µM	–	4.74 µM	2.33 µM	1.66 µM	0.885 µM	1.17 µM	2.74 µM	10.7 µM	1.41 µM	6.94 µM	1.87 µM	3.28 µM	> 100 µM
CC1(C)C2C=CC1C(=O)CC2 (centres undefined)	> 100 µM	–	> 100 µM	> 100 µM	> 100	> 100 µM	–	–	–	–	–	–	–	–	–	–	–
O=c1c(-c2ccccc2)coc2cc(OC/C(=N/O)c3ccccc3)ccc12	53.3 µM	39.9 µM	43.5 µM	26.9 µM	–	25.2 µM	25.4 µM	18 µM	21.8 µM	11 µM	20.5 µM	> 100 µM	29 µM	94.1 µM	3.62 µM	15.3 µM	96.7 µM
CCN(CC)c1ccc(C(=O)c2ccc(N(CC)CC)cc2)cc1	10.5 µM	35.5 µM	> 100 µM	1.99 µM	–	> 58.1 µM	0.436 µM	0.787 µM	0.935 µM	0.372 µM	0.0694 µM	0.43 µM	0.623 µM	7.23 µM	0.607 µM	0.789 µM	> 100 µM
O=C1c2ccccc2S(=O)(=O)c2cc(-c3nn[nH]n3)ccc21	> 100 µM	> 100 µM	> 100 µM	> 100 µM	–	> 100 µM	–	–	–	–	–	> 100 µM	–	> 100 µM	–	–	> 100 µM
O=c1c(O)c(-c2cc(O)c(O)c(O)c2)oc2cc(O)cc(O)c12	> 100 µM	[…]	> 100 µM	39.1 µM	–	> 100 µM	–	–	–	–	–	34.8 µM	–	> 100 µM	–	–	> 100 µM
O=C1CCc2c(sc3[nH]c(=S)n(Cc4ccc(Cl)cc4)c(=O)c23)C1	1.63 µM	> 84.7 µM	3.63 µM	3.7 µM	–	16.6 µM	0.356 µM	0.384 µM	0.465 µM	0.377 µM	1.44 µM	8.33 µM	2.47 µM	> 100 µM	0.497 µM	0.377 µM	3.59 µM
Cc1ccc(O)c(NC(=O)c2ccc(CNc3ccnc(C(F)(F)F)c3)cc2)c1	20.9 µM	> 100 µM	> 100 µM	21.9 µM	–	> 100 µM	4.16 µM	4.23 µM	3.66 µM	3.7 µM	4.26 µM	22.1 µM	12.8 µM	39.4 µM	12.9 µM	1.74 µM	17.7 µM
OCC#Cc1ccccc1C#CCCCCCC#Cc1ccccc1C#CCO	36.3 µM	33.6 µM	54 µM	34 µM	–	45.3 µM	20 µM	19.2 µM	27.1 µM	17.4 µM	18.8 µM	36.1 µM	20.2 µM	41.7 µM	19.2 µM	16.9 µM	32.3 µM
CC(=O)OCc1cc2ccccc2nc1C(Br)(Br)Br	38.2 µM	26.3 µM	27.3 µM	33.8 µM	–	31.2 µM	–	–	–	–	–	27 µM	–	23.9 µM	–	–	> 100 µM
C[N+]1=C(/C=C\C=C\c2ccccc2)C(C)(C)c2ccccc21	7.57 µM	12.4 µM	18.7 µM	17.2 µM	–	19.6 µM	2.59 µM	0.863 µM	5.84 µM	4.44 µM	2.01 µM	5.17 µM	4.62 µM	16.1 µM	4.43 µM	0.966 µM	5.36 µM
CN(Cc1cc(C(C)(C)C)cc(Br)c1O)Cc1cc(C(C)(C)C)cc(Br)c1O	7.66 µM	15.2 µM	9.01 µM	4.72 µM	–	13.7 µM	–	–	–	–	–	15.9 µM	–	19.3 µM	–	–	12.3 µM
Cc1cc(N2CCOCC2)cc2[nH]c(-c3c(NC[C@@H](O)c4cccc(Cl)c4)cc[nH]c3=O)nc12	4.85 µM	12.7 µM	80.2 µM	11.2 µM	–	4.31 µM	2.02 µM	0.798 µM	2.84 µM	0.51 µM	1.07 µM	7.9 µM	1.42 µM	14.7 µM	0.903 µM	4.17 µM	37.8 µM
CCNC(=O)O[C@H]1CN[C@H](C#Cc2cc3ncnc(Nc4ccc(OCc5cccc(F)c5)c(Cl)c4)c3s2)C1	> 18.4 µM	> 25 µM	> 25 µM	> 25 µM	–	> 25 µM	5.77 µM	5.71 µM	1.99 µM	6.84 µM	9.27 µM	> 25 µM	4.72 µM	> 25 µM	5.29 µM	1.49 µM	> 25 µM
Clc1ccc(C(n2cc(Br)cn2)n2cc(Br)cn2)cc1	–	32.3 µM	27.6 µM	33.7 µM	29.5	32.6 µM	–	–	–	–	–	–	–	–	–	–	–
CCN(CC)c1ccc(N=Nc2ccc(-c3nc4ccc[n+](C)c4o3)cc2)cc1	20.3 µM	45.5 µM	–	29.2 µM	16.7	27.1 µM	–	–	–	–	–	–	–	–	–	–	–
O=C(OC[C@H]1O[C@H](OC(=O)c2cc(O)c(O)c(OC(=O)c3cc(O)c(O)c(O)c3)c2)[C@H](OC(=O)c2cc(O)c(O)c(OC(=O)c3cc(O)c(O)c(O)c3)c2)[C@@H](OC(=O)c2cc(O)c(O)c(OC(=O)c3cc(O)c(O)c(O)c3)c2)[C@@H]1OC(=O)c1cc(O)c(O)c(OC(=O)c2cc(O)c(O)c(O)c2)c1)c1cc(O)c(O)c(OC(=O)c2cc(O)c(O)c(O)c2)c1	> 25 µM	> 25 µM	> 25 µM	> 25 µM	–	> 25 µM	5.56 µM	4.2 µM	6.42 µM	1.09 µM	1.5 µM	7.89 µM	3.57 µM	> 25 µM	1.4 µM	2.85 µM	16.6 µM
CCOC(=O)c1[nH]c(COC(C)=O)c2c1CCCCCCCCCC2	> 100 µM	> 100 µM	–	> 100 µM	> 100	> 100 µM	–	–	–	–	–	–	–	–	–	–	–
Cc1ncc(C(=O)Nc2ccc(CN3CCN(C)CC3)c(C(F)(F)F)c2)cc1C#Cc1cnc(N)cc1C#N	2.93 µM	2.32 µM	2 µM	2.84 µM	–	3.93 µM	0.542 µM	0.305 µM	0.189 µM	0.417 µM	0.084 µM	1.61 µM	0.278 µM	2.75 µM	1.26 µM	> 16.7 µM	> 16.7 µM
Cc1cn(-c2cc(NC(=O)c3ccc(C)c(Nc4nccc(-c5cccnc5)n4)c3)cc(C(F)(F)F)c2)cn1	> 10 µM and 31.9 µM	> 10 µM and 29 µM	> 10 µM and 27.2 µM	> 10 µM and 10.7 µM	–	> 10 µM and 7.76 µM	> 10 µM and 15.4 µM	> 10 µM and 13 µM	> 10 µM and 9.36 µM	3.31 µM and 2.33 µM	1.79 µM and 1.57 µM	4.65 µM and 4.76 µM	3.25 µM and 2.34 µM	> 10 µM and 4.47 µM	5.31 µM and 2.68 µM	> 10 µM and 6.71 µM	> 10 µM and 32.3 µM

Source: PubChem BioAssay (NCI)
